In assay [1] the target is Acetylcholinesterase (Torpedo californica, UniProt P04058).
Description: Inhibition of Torpedo california AChE by Ellman's method
The target of assay [2] is Acetylcholinesterase (Torpedo californica) (UniProt P04058). In words: Inhibition of Torpedo california AChE at 0.625 nM by Ellman's method. Conditions: Tetronarce californica. In general terms: DTNB colorimetry detects thiols as they appear.
Assay [3] has the same target. The assay can be described thus: Inhibition of Torpedo california AChE at 0.25 nM by Ellman's method. The note with it: Tetronarce californica.
The target is the same in assay [4]. In words: Inhibition of Torpedo california AChE at 0.313 nM by Ellman's method. The note with it: Tetronarce californica.
The target in assay [5] is Acetylcholinesterase (Homo sapiens, UniProt P22303).
Description: Inhibition of human AChE by Ellman's method
The target in assay [6] is Acetylcholinesterase (Torpedo californica) (UniProt P04058). In words: Inhibition of Torpedo california AChE at 1.25 nM by Ellman's method. The note with it: Tetronarce californica.
Assay [7] shares this target. The assay can be described thus: Inhibition of Torpedo california AChE at 0.5 nM by Ellman's method. The note with it: Tetronarce californica.
For assay [8] the target is unchanged. In words: Inhibition of Torpedo california AChE at 7.81 pM by Ellman's method. Conditions: Tetronarce californica.
For assay [9] the target is unchanged. In words: Inhibition of Torpedo california AChE at 31.3 pM by Ellman's method. The note with it: Tetronarce californica.
Assay [10] has the same target. In words: Inhibition of Torpedo california AChE at 15.6 pM by Ellman's method. Conditions: Tetronarce californica.
Assay [11] has the same target. The assay can be described thus: Inhibition of Torpedo california AChE at 0.125 nM by Ellman's method. The note with it: Tetronarce californica.
For assay [12] the target is unchanged. The assay can be described thus: Ratio of IC50 for drug to P0407 for Torpedo california AChE by Ellman's method. The note with it: Tetronarce californica.
Assay [13] has the same target. The assay can be described thus: Inhibition of Torpedo california AChE at 62.5 pM by Ellman's method. The note with it: Tetronarce californica.
The target is the same in assay [14]. In words: Inhibition of Torpedo california AChE at 5 nM by Ellman's method. The note with it: Tetronarce californica.
The target is the same in assay [15]. The assay can be described thus: Inhibition of Torpedo california AChE at 2.5 nM by Ellman's method. Conditions: Tetronarce californica.
Assay [16] shares this target. The note with it: Tetronarce californica; 5 uM.
Description: Inhibition of Torpedo california AChE at 5 uM by Ellman's method
For assay [17] the target is unchanged. The note with it: Tetronarce californica; 25 uM.
Description: Inhibition of Torpedo california AChE at 25 uM by Ellman's method
The target is the same in assay [18]. Conditions: Tetronarce californica; 1.25 uM.
Description: Inhibition of Torpedo california AChE at 1.25 uM by Ellman's method
For assay [19] the target is unchanged. The note with it: Tetronarce californica; 0.625 uM.
Description: Inhibition of Torpedo california AChE at 0.625 uM by Ellman's method
Assay [20] shares this target. Conditions: Tetronarce californica; 0.313 uM.
Description: Inhibition of Torpedo california AChE at 0.313 uM by Ellman's method
Assay [21] has the same target. In words: Inhibition of Torpedo california AChE at 7.56 nM by Ellman's method. The note with it: Tetronarce californica.
For assay [22] the target is unchanged. The assay can be described thus: Inhibition of Torpedo california AChE at 15.1 nM by Ellman's method. The note with it: Tetronarce californica.
Assay [23] shares this target. The assay can be described thus: Inhibition of Torpedo california AChE at 30.3 nM by Ellman's method. The note with it: Tetronarce californica.
Assay [24] has the same target. Conditions: Tetronarce californica; 60.5 nM.
Description: Inhibition of Torpedo california AChE at 60.5 nM by Ellman's method

Structures are written as SMILES.

In general, IC50 refers to the concentration at which inhibition is half-maximal. Lower therefore signals greater potency in that assay. Broadly, the inhibition is the share of the control response that was lost under treatment. Read a low inhibition as little suppression.

Chain of Acetylcholinesterase (Torpedo californica) (P04058 22-564 limits assumed): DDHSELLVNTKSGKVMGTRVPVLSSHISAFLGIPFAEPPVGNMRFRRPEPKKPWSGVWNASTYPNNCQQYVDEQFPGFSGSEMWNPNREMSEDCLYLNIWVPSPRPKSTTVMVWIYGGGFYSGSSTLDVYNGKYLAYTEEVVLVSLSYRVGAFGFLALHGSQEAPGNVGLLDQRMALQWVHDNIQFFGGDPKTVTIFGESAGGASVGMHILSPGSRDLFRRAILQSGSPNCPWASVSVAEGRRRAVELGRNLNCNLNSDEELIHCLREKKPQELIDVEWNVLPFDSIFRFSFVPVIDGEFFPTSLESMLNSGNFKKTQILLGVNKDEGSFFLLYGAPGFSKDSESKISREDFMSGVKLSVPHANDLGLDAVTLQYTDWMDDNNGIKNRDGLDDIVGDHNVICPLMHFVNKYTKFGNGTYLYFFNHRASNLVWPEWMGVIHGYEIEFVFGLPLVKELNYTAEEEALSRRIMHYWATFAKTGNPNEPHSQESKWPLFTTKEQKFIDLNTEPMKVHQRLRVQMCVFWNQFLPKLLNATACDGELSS
Chain of Acetylcholinesterase (Homo sapiens, UniProt P22303) (P22303 whole entry): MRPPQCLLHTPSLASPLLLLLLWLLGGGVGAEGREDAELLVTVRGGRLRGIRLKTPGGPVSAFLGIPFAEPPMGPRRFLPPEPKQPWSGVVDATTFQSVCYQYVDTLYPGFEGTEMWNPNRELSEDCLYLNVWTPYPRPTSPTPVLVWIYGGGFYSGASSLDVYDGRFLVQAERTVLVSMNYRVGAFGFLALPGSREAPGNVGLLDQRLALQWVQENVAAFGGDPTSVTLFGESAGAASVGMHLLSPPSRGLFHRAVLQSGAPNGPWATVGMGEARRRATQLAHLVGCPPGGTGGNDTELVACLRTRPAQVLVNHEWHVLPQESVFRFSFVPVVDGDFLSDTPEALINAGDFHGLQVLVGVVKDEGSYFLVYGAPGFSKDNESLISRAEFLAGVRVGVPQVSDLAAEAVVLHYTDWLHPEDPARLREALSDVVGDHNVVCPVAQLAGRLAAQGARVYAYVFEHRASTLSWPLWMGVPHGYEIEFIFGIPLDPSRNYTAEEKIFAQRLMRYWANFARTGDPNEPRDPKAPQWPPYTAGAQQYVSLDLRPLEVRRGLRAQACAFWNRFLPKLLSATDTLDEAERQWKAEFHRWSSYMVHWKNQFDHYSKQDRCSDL
Chain of Acetylcholinesterase (Torpedo californica, UniProt P04058) (P04058 whole entry): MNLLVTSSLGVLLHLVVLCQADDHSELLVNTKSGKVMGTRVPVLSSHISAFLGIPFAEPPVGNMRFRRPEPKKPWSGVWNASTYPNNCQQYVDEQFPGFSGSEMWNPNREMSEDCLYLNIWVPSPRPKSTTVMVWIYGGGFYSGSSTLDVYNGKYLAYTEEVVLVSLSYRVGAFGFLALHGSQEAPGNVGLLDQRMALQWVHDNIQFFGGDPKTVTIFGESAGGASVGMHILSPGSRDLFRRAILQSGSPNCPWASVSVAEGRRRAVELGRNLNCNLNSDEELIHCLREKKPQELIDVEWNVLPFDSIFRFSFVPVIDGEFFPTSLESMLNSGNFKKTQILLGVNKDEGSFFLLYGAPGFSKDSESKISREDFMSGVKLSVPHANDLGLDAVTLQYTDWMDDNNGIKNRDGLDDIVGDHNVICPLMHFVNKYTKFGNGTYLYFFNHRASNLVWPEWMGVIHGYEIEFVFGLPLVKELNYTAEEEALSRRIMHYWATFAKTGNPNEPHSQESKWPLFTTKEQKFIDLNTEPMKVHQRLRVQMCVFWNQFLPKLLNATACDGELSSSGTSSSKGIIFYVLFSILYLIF

`C/C=C1\[C@H]2C=C(C)C[C@]1(/N=C/c1ccc(O)c(OCC)c1)c1ccc(=O)[nH]c1C2`: the values for the IC50 against Acetylcholinesterase [1] and on Acetylcholinesterase [5] were 0.842 nM and 25 nM, respectively. In addition, the inhibition was 43.6% in assay [2]; 68.1% in [3]; 28.2% in [4]; 56.2% in assay [6]; 84% in [7].
Consider `C/C=C1\[C@H]2C=C(C)C[C@]1(/N=C/c1ccc(OC)cc1OC)c1ccc(=O)[nH]c1C2`, for which the IC50 at Acetylcholinesterase [1] came to 0.0446 nM; against Acetylcholinesterase [5], 84 nM. Moreover, the inhibition in assay [8] came out at 15.9%; in assay [9] it was 36.2%; in assay [10], 22.1%; in assay [11], 76.5%; in assay [13] it was 62.8%. Moreover, the Ratio in assay [12] amounted to 477.
With `C=CCOc1ccc(/C=N/[C@@]23CC(C)=C[C@@H](Cc4[nH]c(=O)ccc42)/C3=C\C)cc1`, the IC50 against Acetylcholinesterase [1] stood at 13.9 nM; on Acetylcholinesterase [5] it was 31 nM.
`C/C=C1\[C@H]2C=C(C)C[C@]1(/N=C/C=C/c1ccccc1)c1ccc(=O)[nH]c1C2`: the concentration for half-maximal inhibition (IC50) at Acetylcholinesterase [1] is 1.81 nM; against Acetylcholinesterase [5], 24 nM. The inhibition in assay [14] was determined as 83.4%; in [2], 16.7%; in assay [4], 5.5%; in [15], 62.5%; in assay [6], 37.1%.
For `C/C=C1\[C@H]2C=C(C)C[C@]1(/N=C/c1ccc(N(C)C)cc1)c1ccc(=O)[nH]c1C2`, the half-maximal inhibitory concentration (IC50) against Acetylcholinesterase [1] stood at 23.3 nM; against Acetylcholinesterase [5] it was 31 nM.
Take `C/C=C1\[C@H]2C=C(C)C[C@]1(/N=C/C(=C/c1ccccc1)CCCCC)c1ccc(=O)[nH]c1C2`: the results for the IC50 against Acetylcholinesterase [1] and on Acetylcholinesterase [5] were 796 nM and 51 nM, respectively. For the same molecule, the inhibition amounted to 86% in assay [16]; 79% in assay [17]; 58.6% in assay [18]; 44.2% in assay [19]; 30.4% in [20].
In the case of `C/C=C1\[C@H]2C=C(C)C[C@]1(/N=C/c1ccccc1OS(=O)(=O)O)c1ccc(=O)[nH]c1C2`, the IC50 is 18.2 nM on Acetylcholinesterase [1] and 41 nM against Acetylcholinesterase [5].
Consider `C/C=C1\[C@H]2C=C(C)C[C@]1(/N=C/c1ccc(C#N)cc1)c1ccc(=O)[nH]c1C2`, for which the IC50 amounted to 0.0412 nM on Acetylcholinesterase [1] and 22 nM on Acetylcholinesterase [5]. The inhibition came to 12.6% in assay [8]; 38.7% in [9]; 26% in [10]; 89.3% in [11]; 79.4% in assay [13]. Further, the Ratio in [12] worked out at 517.
With `CNC(=O)Oc1ccc2c(c1)[C@]1(C)CCN(C)[C@@H]1N2C`, the inhibition was 24.7% in assay [21], 45.5% in [22] and 64.3% in assay [23].
Consider `C/C=C1\[C@H]2C=C(C)C[C@]1(/N=C/c1cc(OC)cc(OC)c1)c1ccc(=O)[nH]c1C2`, for which the figures for the concentration for half-maximal inhibition (IC50) against Acetylcholinesterase [1] and at Acetylcholinesterase [5] were 0.02 nM and 29 nM, respectively. The inhibition is 28.5% in assay [8]; 61.7% in [9]; 41.3% in assay [10]; 90.8% in assay [11]; 80.6% in assay [13]; 73.7% in assay [24]. Besides, the Ratio in [12] came to 1060.

The record behind these values is ChEMBL document CHEMBL1152583 (Bioorg Med Chem, 2009).
